From PMC10661964 (Current Drug Metabolism, 2023)
“And” between values parts separate entries of the source, which are not always exact repeats. Equal values may be shown once.

Tests used:
[1] = test system: human CYP enzymes; assay: CYP induction, all isoforms tested (summary); format: in vitro ADME
Text: (§1) The inhibition of cytochrome P450 (CYP) isoforms and a range of cellular transporters (except multidrug and toxin extrusion [MATE] proteins), as well as the induction of CYP isoforms were investigated using previously described methods.

[2] = biological target: T1, MATE2K (Homo sapiens, UniProt Q86VL8); assay: MATE2K transport assay in overexpressing HEK293 cells; format: in vitro ADME; conditions: probe substrate metformin 90 µM
T1 construct: expressed in transfected cells; host or cells: HEK293, stably transfected
Method: as §1
Supplementary Material Current Drug Metabolism, 2023, Vol. 24, No. 8 iii […]
-, not determined; BCRP, breast cancer resistance protein; P-gp, P-glycoprotein; MATE, multidrug and toxin extrusion. aThe highest test concentration of 20 µM was not valid in this assay for technical reasons.
OAT, organic anion transporter; OATP, organic anion transporting polypeptide; OCT, organic cation transporters.
After thawing from frozen storage, aliquots of approximately 3 x 10^6 cells of human embryonic kidney (HEK293) cell line stable overex-pressing MATE1 or MATE2K were transferred to cell culture dishes containing 10 mL of DMEM-medium (supplemented with 10% FBS, 1% penicillin [10.000 U/mL]/streptomycin [10 mg/mL] and hygromycin B [150 µg/mL]) at 37°C. Transporter-transfected and vector-transfected HEK cells were grown on cell culture dishes at 37°C in a humidified 5% CO 2 atmosphere. All cell lines were confirmed free from mycoplasma by routine testing with conventional PCR. Cell cultures were split when they had grown to confluency. For passaging, cells were washed with PBS, exposed to trypsin-EDTA for 5 min at room temperature, collected by centrifugation, resuspended in culture medium and […]
MATE1 and MATE2K Transport Assays
Transporter-transfected and vector-transfected cells were prepared for use in uptake assays by harvesting and plating into 24-well-plates pre-coated with poly-D-lysine hydrobromide at a density of 2 x 10^5 cells/well and then cultured for 3 days in DMEM growth medium (high glucose, 10% FBS, 1% penicillin/streptomycin). For uptake assays, the growth medium was aspirated and each plate well was rinsed twice with HBSS supplemented with 20 mM HEPES, pH 7.4. The intracellular environment was acidified by preincubation in 30 mM NH4Cl in buffer pH 7.4 at 37°C for 30 min. […]

[3] = biological target: T2, OAT1 (Homo sapiens, UniProt Q4U2R8); assay: Uptake transporter inhibition; format: in vitro ADME; conditions: probe substrate p-aminohippuric acid
T2 sequence (Q4U2R8 1-563): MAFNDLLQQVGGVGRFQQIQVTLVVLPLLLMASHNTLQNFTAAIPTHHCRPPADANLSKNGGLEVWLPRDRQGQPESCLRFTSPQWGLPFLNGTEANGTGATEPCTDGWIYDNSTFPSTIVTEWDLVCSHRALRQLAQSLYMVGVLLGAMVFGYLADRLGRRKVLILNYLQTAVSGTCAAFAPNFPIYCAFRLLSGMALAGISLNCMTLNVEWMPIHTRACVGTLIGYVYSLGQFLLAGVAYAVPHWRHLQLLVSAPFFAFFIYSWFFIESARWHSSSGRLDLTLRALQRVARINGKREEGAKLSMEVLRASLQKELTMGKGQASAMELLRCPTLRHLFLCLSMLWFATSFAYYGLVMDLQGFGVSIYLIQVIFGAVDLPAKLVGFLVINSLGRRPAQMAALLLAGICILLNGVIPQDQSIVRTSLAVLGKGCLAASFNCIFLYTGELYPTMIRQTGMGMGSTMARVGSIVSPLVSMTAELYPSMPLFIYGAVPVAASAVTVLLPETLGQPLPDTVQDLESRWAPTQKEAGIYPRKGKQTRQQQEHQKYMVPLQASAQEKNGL
Text: as §1

[4] = test system: human CYP enzymes (all isoforms tested); assay: CYP inhibition, all isoforms tested (summary); format: in vitro ADME; conditions: reversible and irreversible
Text: as §1

[5] = Quantification of nifurtimox and metabolites in human plasma (LC-HRMS), plasma PK; format: in vivo; conditions: fed; for AUC(tlast-∞) (extrapolated proportion): pooled plasma of 6 patients, single oral 120 mg nifurtimox; for AUC, % of total quantified exposure: sum of AUC of nifurtimox and M-1 to M-6 = 100%, single oral 120 mg
Method: Plasma samples from timepoints 0, 0.25, 0.5, 0.75, 1, 1.5, 2, 2.5, 3, 4, 6, 8, 12, 15, and 24 h from 6 patients were analyzed. Blood samples were collected into lithium heparinized tubes. Blood cells and plasma were then separated by centrifugation, and the plasma was stored frozen until needed. For the analysis, plasma samples were thawed at room temperature and homogenized by vortex mixing. Equal volumes of plasma from the six patients for each timepoint were combined to a pooled volume of 200 µL. To precipitate protein, a 3-fold volume of acetonitrile/0.5% formic acid (v/v in water) was added to each pooled sample which was thoroughly mixed and then centrifuged at 20,000 g. […] For all analytes, the analytical precision ranged from 0.1% to 8.8%, and the accuracy was 95% to 108%.

[6] = Unbound fraction (fu) in human plasma; format: in vitro ADME
[7] = biological target: P-gp (Homo sapiens, UniProt P08183); assay: Efflux transporter inhibition; format: in vitro ADME
Text: as §1

[8] = biological target: T3, BCRP (Homo sapiens, UniProt Q9UNQ0); assay: Efflux transporter inhibition; format: in vitro ADME
T3 sequence (Q9UNQ0 1-655): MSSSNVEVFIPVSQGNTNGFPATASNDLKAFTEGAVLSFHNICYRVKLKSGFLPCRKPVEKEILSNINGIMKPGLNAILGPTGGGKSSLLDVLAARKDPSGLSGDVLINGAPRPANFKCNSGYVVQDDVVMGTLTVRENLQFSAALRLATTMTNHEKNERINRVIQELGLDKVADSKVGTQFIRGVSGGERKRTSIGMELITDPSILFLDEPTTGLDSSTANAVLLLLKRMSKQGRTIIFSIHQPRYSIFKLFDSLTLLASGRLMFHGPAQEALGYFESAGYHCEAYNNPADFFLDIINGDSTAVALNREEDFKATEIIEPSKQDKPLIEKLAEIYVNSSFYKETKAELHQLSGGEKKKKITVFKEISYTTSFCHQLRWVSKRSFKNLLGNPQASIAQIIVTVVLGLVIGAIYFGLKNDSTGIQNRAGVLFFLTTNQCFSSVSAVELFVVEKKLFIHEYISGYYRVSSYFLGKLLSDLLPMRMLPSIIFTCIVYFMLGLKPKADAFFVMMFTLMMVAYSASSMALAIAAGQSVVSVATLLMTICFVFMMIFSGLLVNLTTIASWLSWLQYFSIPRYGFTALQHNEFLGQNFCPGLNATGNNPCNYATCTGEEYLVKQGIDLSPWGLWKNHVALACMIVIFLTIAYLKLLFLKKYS
Text: as §1

[9] = probe substrate digoxin, for M-4 the highest test concentration of 20 µM was not valid

Sequence of P-gp (P08183 whole entry): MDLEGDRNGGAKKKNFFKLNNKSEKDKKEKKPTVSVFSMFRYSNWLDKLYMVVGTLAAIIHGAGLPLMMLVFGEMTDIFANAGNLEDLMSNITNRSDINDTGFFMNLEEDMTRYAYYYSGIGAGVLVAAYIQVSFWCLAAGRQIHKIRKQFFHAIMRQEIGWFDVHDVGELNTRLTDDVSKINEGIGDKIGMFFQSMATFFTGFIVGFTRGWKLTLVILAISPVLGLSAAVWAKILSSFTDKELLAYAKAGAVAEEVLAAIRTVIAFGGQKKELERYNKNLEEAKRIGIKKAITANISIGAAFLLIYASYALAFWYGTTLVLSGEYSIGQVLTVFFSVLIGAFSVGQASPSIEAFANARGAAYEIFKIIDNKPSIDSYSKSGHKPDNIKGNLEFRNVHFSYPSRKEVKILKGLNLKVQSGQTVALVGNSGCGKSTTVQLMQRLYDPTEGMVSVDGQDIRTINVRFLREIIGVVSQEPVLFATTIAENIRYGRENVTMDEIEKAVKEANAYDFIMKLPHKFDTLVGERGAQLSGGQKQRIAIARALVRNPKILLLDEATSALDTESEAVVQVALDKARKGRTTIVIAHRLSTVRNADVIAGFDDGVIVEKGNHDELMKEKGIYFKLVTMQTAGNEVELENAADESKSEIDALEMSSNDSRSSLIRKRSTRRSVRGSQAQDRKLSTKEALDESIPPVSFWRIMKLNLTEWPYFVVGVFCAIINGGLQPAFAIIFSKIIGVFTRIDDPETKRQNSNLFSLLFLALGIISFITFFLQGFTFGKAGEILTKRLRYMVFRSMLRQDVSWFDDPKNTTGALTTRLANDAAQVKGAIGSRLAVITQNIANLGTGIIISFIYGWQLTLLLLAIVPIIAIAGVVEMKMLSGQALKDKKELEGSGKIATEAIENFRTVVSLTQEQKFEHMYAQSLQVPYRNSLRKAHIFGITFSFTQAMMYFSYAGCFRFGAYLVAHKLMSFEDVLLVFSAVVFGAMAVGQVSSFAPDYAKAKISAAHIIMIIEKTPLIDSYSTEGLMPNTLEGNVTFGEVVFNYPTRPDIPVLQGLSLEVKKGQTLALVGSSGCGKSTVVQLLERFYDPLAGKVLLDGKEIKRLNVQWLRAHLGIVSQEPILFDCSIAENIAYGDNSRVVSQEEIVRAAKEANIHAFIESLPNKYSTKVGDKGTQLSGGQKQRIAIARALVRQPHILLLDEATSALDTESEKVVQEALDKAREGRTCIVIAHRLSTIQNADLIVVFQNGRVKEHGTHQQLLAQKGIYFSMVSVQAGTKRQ
T1 sequence (Q86VL8 1-566 isoform Q86VL8-3): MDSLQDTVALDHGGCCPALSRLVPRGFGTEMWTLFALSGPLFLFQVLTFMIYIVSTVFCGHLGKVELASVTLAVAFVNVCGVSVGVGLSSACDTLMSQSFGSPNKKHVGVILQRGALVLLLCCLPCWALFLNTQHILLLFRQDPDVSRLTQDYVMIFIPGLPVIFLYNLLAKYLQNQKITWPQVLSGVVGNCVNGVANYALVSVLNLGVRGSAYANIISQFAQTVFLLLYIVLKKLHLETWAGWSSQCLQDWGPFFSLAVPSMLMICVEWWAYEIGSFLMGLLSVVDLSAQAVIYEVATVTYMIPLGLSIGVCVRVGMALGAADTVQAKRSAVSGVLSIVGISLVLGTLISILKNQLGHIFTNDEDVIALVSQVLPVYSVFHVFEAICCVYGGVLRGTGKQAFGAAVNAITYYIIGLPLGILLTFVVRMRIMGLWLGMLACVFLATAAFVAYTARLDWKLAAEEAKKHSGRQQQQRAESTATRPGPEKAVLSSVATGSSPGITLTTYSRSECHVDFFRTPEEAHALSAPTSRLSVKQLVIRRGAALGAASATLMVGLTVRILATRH

SMILES: CC1CS(=O)(=O)CCN1n1cc(SCC(N)C(=O)O)ccc1=O (centres unmarked) [M-4]
- concentration up to which induction of CYP mRNA or activity was absent [1]: ≤ 80 mg/L
- IC50 [2]: > 5 µM
- IC50 [3]: > 5 µM
- IC50 [4]: > 20 µM
- AUC(tlast-∞) (extrapolated proportion) [5]: 48.4%
- AUC, % of total quantified exposure [5]: 8.9% and 8.9^a %
- fraction unbound [6]: 1
- IC50 [7, 9]: > 5 µM
- IC50 ([7]; probe substrate dipyridamole): > 20 µM
- IC50 ([8]; probe substrate fluvastatin): > 20 µM
- IC50 ([8]; probe substrate topotecan): > 20 µM

SMILES: CC1CS(=O)(=O)CCN1N (centres unmarked) [M-6]
- concentration up to which induction of CYP mRNA or activity was absent [1]: ≤ 90 mg/L
- IC50 [2]: > 30 µM
- IC50 [3]: > 30 µM
- IC50 [4]: > 100 µM
- AUC(tlast-∞) (extrapolated proportion) [5]: 21.8%
- AUC, % of total quantified exposure [5]: 69.4%
- fraction unbound [6]: 1
- IC50 [7, 9]: > 200 µM
- IC50 ([7]; probe substrate dipyridamole): > 200 µM
- IC50 ([8]; probe substrate fluvastatin): > 200 µM
- IC50 ([8]; probe substrate topotecan): > 200 µM

SMILES: CC1CS(=O)(=O)CCN1/N=C/c1ccc([N+](=O)[O-])o1 (centres unmarked) [Nifurtimox, (E)-N-(3-methyl-1,1-dioxo-1,4-thiazinan-4-yl)-1-(5-nitrofuran-2-yl) methanimine, reference compound]
- concentration up to which induction of CYP mRNA or activity was absent [1]: up to 30 mg/L
- IC50 [2]: > 20 µM
- IC50 [3]: > 20 µM
- IC50 [4]: > 50 µM
- AUC(tlast-∞) (extrapolated proportion) [5]: 0.6%
- AUC, % of total quantified exposure [5]: 16.9%
- fraction unbound [6]: 0.576
- IC50 [7, 9]: > 100 µM
- IC50 ([7]; probe substrate dipyridamole): > 100 µM
- IC50 ([8]; probe substrate topotecan): > 100 µM
